For 13 compounds, IC50, EC50 and melting point results are on record in patent publication US8513233B2, “Pyrimidinyl-propionic acid derivatives and their use as PPAR agonists” (Shanghai Institute of Materia Medica, CAS, priority 2007, dated 2013).

A value given as a limit tells only on which side of the number the result lay.

For one data set, the system named is HepG2. Kind of data set: Growth inhibition, modified MTT assay, HepG2. The data set is classed as cell-based. The note with it: Homo sapiens, mean of 3 independent tests. The method, then:
(§1) The growth inhibition was evaluated by the modified MTT assay. Briefly, the cells were seeded at 1×10^4 cells/well in 96-well plates (Falcon, Calif., USA), and incubated for 24 h in […] culture media with 10% FCS. The media were then replaced by serum-free medium. After 24 h, the media were placed in triplicate with grade concentrations of compounds. As controls, the cells were cultivated in DMEM/F12 only. The cells were then treated by MTT (Sigma, USA) assay, […] (5 g/L) for 4 h. After the removal of the supernatant, the purple-blue sediment was dissolved in 100 μL/well DMSO, and the optical densities were read on the multi-well scanning spectrophotometer (Labsystems Dragon, Finland) at 492 nm (A492). The growth inhibition rate (GIR) of the treated cells was calculated using Equation: GIR(%)={1−[A490/A490(control)]}×100% The results were also converted to IC50 (the compound concentration required for 50% growth inhibition of tumor cells), which were calculated by using the sigmoidal fitting model by the Origin 7.0 software (OriginLab, Northampton, Mass., USA). The mean IC50 was determined from the results of 3 independent tests.
On the technique in general: Tetrazolium assays rely on reduction of a dye to a coloured formazan, in cell work by metabolically active cells.

The next data set has as its target T1, PPAR-γ (Homo sapiens, UniProt P37231).
T1 construct: expressed in transfected cells; host or cells: U2OS cells, transiently transfected with pcDNA3.1 expression vectors (FuGene6)
T1 sequence (P37231 1-505): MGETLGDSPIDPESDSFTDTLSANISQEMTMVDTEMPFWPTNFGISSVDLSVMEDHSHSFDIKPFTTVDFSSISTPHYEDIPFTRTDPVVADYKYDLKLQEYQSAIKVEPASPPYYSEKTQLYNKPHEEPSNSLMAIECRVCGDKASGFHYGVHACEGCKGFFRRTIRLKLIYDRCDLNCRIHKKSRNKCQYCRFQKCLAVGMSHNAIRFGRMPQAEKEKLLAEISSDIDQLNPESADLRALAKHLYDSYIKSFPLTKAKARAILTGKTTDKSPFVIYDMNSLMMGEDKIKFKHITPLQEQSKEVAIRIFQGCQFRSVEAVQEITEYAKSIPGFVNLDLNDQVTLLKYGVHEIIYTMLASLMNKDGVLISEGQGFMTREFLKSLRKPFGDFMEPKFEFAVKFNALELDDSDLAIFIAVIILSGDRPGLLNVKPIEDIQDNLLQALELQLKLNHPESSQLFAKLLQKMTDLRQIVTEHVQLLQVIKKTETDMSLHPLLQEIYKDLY
T1 sequence (P19793 1-462 partner): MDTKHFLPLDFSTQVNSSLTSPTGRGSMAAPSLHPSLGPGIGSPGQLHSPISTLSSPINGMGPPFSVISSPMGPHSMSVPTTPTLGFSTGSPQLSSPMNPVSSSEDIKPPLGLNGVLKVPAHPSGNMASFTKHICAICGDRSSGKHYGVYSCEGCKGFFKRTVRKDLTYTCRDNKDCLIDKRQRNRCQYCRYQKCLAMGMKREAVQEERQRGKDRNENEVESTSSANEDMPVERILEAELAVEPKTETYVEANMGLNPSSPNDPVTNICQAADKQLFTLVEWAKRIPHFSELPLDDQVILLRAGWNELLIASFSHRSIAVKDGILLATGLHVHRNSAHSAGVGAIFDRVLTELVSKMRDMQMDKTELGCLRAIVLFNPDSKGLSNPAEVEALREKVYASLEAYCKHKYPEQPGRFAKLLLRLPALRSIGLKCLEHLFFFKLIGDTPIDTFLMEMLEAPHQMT
Kind of data set: Transient transfection and transcription assay (luciferase reporter, U2OS cells). The data set is classed as cell-based. The note with it: 24 h treatment. The method, then: cDNAs for Human RXR, PPAR were obtained by RTPCR from the human liver or adipose tissues. Amplified cDNAs were cloned into pcDNA3.1 expression vector and the inserts were confirmed by sequencing. U2OS cells were cultured in McCoy's 5A with 10% heat-inactivated fetal bovine serum in a humidified 5% CO2 atmosphere at 37° C. Cells were seeded in 96-well plates the day before transfection to give a confluence of 50-80% at transfection. A total of 60 ng of DNA containing 10 ng of hRXR, 10 ng of pCMV Gal, 10 ng of nuclear receptor expression vectors and 30 ng of the corresponding reporters were cotransfected per well using FuGene6 transfection reagent according to the manufacturer's instructions. […] The final concentration of DMSO in culture medium was 0.1%. […] Luciferase activity was monitored using the luciferase assay kit according to the manufacturers instructions. Light emission was read in a Labsystems Ascent Fluoroskan reader. To measure galactosidase activity to normalize the luciferase data, 50 IL of supernatant from each transfection lysate was transferred to a new microplate. Galactosidase assays were performed in the microwell plates using a kit from Promega and read in a microplate reader. Compounds were tested in five concentrations ranging from 0.01 to 10 μM. […] The results were expressed as means (SD).
Background: Reporter assays use an easily measured gene product as a stand-in for the process of interest.

Another data set relates to MCF-7. Kind of data set: Growth inhibition, modified MTT assay, MCF-7. The data set is classed as cell-based. The following applies: Homo sapiens, MCF7; MCF-7, MTT, mean of 3 independent tests. The method, then:
as §1

In a further data set the test system is SPC-A1. Kind of data set: Growth inhibition, modified MTT assay, SPC-A1. The data set is classed as cell-based. The note with it: SPCA1, mean of 3 independent tests. The method, then: as §1
Another data set concerns T24. Kind of data set: Growth inhibition, modified MTT assay, T24. The data set is classed as cell-based. The note with it: Homo sapiens, T-24, mean of 3 independent tests. The method, then:
as §1

Broadly, the IC50 is the concentration that gives 50% inhibition. Read a high IC50 as a need for much substance. The EC50 is the concentration that produces a half-maximal response. Read a high EC50 as lower potency in that assay. Usually melting point stands for the temperature, or range, at which the solid turns liquid. On to `CC(Cc1ccc(Oc2cc(N3CCN(Cc4ccc5c(c4)OCO5)CC3)nc(N)n2)cc1)(Oc1ccccc1)C(=O)O` (centres unmarked) [Compound 5], for which the melting point is 190 to 192 °C. In the data set on HepG2, this compound gave an IC50 of over 50 µM. Further, the EC50 at PPAR-γ came to 6.46 µM. The IC50 in the data set with MCF-7 was over 50 µM. In the data set with SPC-A1, the IC50 is over 50 µM. In the data set with T24, the IC50 was over 50 µM.
As to `CC(Cc1ccc(Oc2cc(N3CCN(Cc4ccc(F)cc4)CC3)nc(N)n2)cc1)(Oc1ccccc1)C(=O)O` (centres unmarked) [Compound 7, 3-{4-{2-Amino-6-[4-(4-fluoro-benzyl)-piperazin-1-yl]-pyrimidin-4-yloxy}-phenyl}-2-methyl-2-phenoxy-propionic acid], the melting point was in the range of 107 to 109 °C. In the data set on HepG2, this compound had an IC50 of over 50 µM. In the data set with MCF-7, this compound came in with an IC50 of over 50 µM. Further, in the data set on SPC-A1, the half-inhibitory concentration (IC50) was over 50 µM. This compound had an IC50 in the data set with T24 of over 50 µM.
`CC(Cc1ccc(Oc2cc(N3CCN(Cc4ccc(C(F)(F)F)cc4)CC3)nc(N)n2)cc1)(Oc1ccccc1)C(=O)O` (centres unmarked) [Compound 8, 3-{4-{2-Amino-6-[4-(4-trifluoromethyl-benzyl)-piperazin-1-yl]-pyrimidin-4-yloxy}-phenyl}-2-methyl-2-phenoxy-propionic acid]: the melting point is 114 to 115 °C. The compound also yielded an IC50 in the data set on HepG2 of over 50 µM. Further, the midpoint of inhibition in the data set on MCF-7, the IC50, lay at 28.5 µM. In the data set with SPC-A1, this compound yielded an IC50 of 42.5 µM. This compound also gave an IC50 in the data set with T24 of 36.2 µM.
In turn, `CC(Cc1ccc(Oc2cc(N3CCN(Cc4cccc(Cl)c4)CC3)nc(N)n2)cc1)(Oc1ccccc1)C(=O)O` (centres unmarked) [Compound 11, 3-{4-{2-Amino-6-[4-(3-chloro-benzyl)-piperazin-1-yl]-pyrimidin-4-yloxy}-phenyl}-2-methyl-2-phenoxy-propionic acid] returned a melting point of 87 to 89 °C. Also, the IC50 with HepG2 was over 50 µM. The EC50 at PPAR-γ came to 5.13 µM. This compound also registered an IC50 in the data set with MCF-7 of 40.6 µM. Also, the IC50 in the data set on SPC-A1 was found to be 47.6 µM. The IC50 in the data set on T24 was over 50 µM.
For `CC(Cc1ccc(Oc2cc(N3CCN(Cc4cccc(F)c4)CC3)nc(N)n2)cc1)(Oc1ccccc1)C(=O)O` (centres unmarked) [Compound 12, 3-{4-{2-Amino-6-[4-(3-fluoro-benzyl)-piperazin-1-yl]-pyrimidin-4-yloxy}-phenyl}-2-methyl-2-phenoxy-propionic acid], the melting point is 113 to 115 °C. Besides, the IC50 in the data set on HepG2 was over 50 µM. On PPAR-γ, it took 6.46 µM to reach a half-maximal effect (EC50). The compound also came in with an IC50 in the data set on MCF-7 of over 50 µM. Also, the IC50 in the data set on SPC-A1 is over 50 µM. Further, in the data set with T24, the IC50 is over 50 µM.
As for `CC(Cc1ccc(Oc2cc(N3CCN(Cc4ccc(Cl)cc4)CC3)nc(N)n2)cc1)(Oc1ccccc1)C(=O)O` (centres unmarked) [Compound 13, 3-{4-{2-Amino-6-[4-(4-chloro-benzyl)-piperazin-1-yl]-pyrimidin-4-yloxy}-phenyl}-2-methyl-2-phenoxy-propionic acid], the melting point lay within 103 to 105 °C. In addition, the IC50 in the data set with HepG2 was over 50 µM. In the data set on MCF-7, this compound had an IC50 of 48.9 µM. In the data set on SPC-A1, the IC50 was over 50 µM. Moreover, the midpoint of inhibition in the data set on T24, the IC50, lay at 45.6 µM.
`CC(Cc1ccc(Oc2cc(N3CCN(Cc4ccc(Br)cc4)CC3)nc(N)n2)cc1)(Oc1ccccc1)C(=O)O` (centres unmarked) [Compound 15, 3-{4-{2-Amino-6-[4-(4-bromo-benzyl)-piperazin-1-yl]-pyrimidin-4-yloxy}-phenyl}-2-methyl-2-phenoxy-propionic acid] had a melting point of 112 to 114 °C. For the same compound, in the data set on HepG2, the IC50 is over 50 µM. The compound further registered an EC50 on PPAR-γ of 5.89 µM. This compound also had an IC50 in the data set with MCF-7 of 42.2 µM. In the data set with SPC-A1, this compound had an IC50 of 45.3 µM. The IC50 in the data set on T24 is over 50 µM.
`CC(Cc1ccc(Oc2cc(N3CCN(Cc4cccc(Br)c4)CC3)nc(N)n2)cc1)(Oc1ccccc1)C(=O)O` (centres unmarked) [Compound 16, 3-{4-{2-Amino-6-[4-(3-bromo-benzyl)-piperazin-1-yl]-pyrimidin-4-yloxy}-phenyl}-2-methyl-2-phenoxy-propionic acid] gave a melting point of 119 to 120 °C. The compound also showed an IC50 in the data set on HepG2 of 48 µM. For the same compound, the response at PPAR-γ was half-maximal at 6.31 µM (EC50). For the same compound, the IC50 in the data set on MCF-7 worked out at 30 µM. In the data set on SPC-A1, this compound yielded an IC50 of 37 µM. Half-maximal inhibition with T24 (IC50) required 41 µM.
`CC(Cc1ccc(Oc2cc(N3CCN(CC(=O)c4ccccc4)CC3)nc(N)n2)cc1)(Oc1ccccc1)C(=O)O` (centres unmarked) [Compound 18, 3-{4-{2-Amino-6-[4-(2-oxo-2-phenyl-ethyl)-piperazin-1-yl]-pyrimidin-4-yloxy}-phenyl}-2-methyl-2-phenoxy-propionic acid]: the melting point was in the range of 107 to 108 °C. For the same compound, the 50% inhibitory concentration (IC50) with HepG2 was over 50 µM. Besides, at PPAR-γ, the EC50 came to 6.46 µM. In the data set on MCF-7, the IC50 was over 50 µM. The IC50 in the data set with SPC-A1 is over 50 µM. Moreover, the IC50 in the data set on T24 was over 50 µM.
Take `CC(Cc1ccc(Oc2cc(N3CCN(c4ccccn4)CC3)nc(N)n2)cc1)(Oc1ccccc1)C(=O)O` (centres unmarked) [Compound 19, 3-{4-[2-Amino-6-(4-pyridin-2-yl-piperazin-1-yl)-pyrimidin-4-yloxy]-phenyl}-2-methyl-2-phenoxy-propionic acid]: the melting point lay in the range of 110 to 111 °C. Also, in the data set with HepG2, half-maximal inhibition (IC50) was put at 49.5 µM. On PPAR-γ, this compound registered an EC50 of 6.31 µM. This compound also came in with an IC50 in the data set with MCF-7 of over 50 µM. The IC50 with SPC-A1 is 42.5 µM.
On to `CC(Cc1ccc(Oc2cc(N3CCN(Cc4ccc([N+](=O)[O-])cc4)CC3)nc(N)n2)cc1)(Oc1ccccc1)C(=O)O` (centres unmarked) [Compound 38, 3-{4-{2-Amino-6-[4-(4-nitro-benzyl)-piperazin-1-yl]-pyrimidin-4-yloxy}-phenyl}-2-methyl-2-phenoxy-propionic acid], for which the melting point was in the range of 160 to 162 °C. In the data set on HepG2, the IC50 was over 50 µM. The IC50 in the data set with MCF-7 was 45.3 µM. This compound yielded an IC50 with SPC-A1 of over 50 µM. The compound further showed an IC50 in the data set on T24 of 40.3 µM.
The compound `CC(Cc1ccc(Oc2cc(N3CCN(Cc4cccnc4)CC3)nc(N)n2)cc1)(Oc1ccccc1)C(=O)O` (centres unmarked) [Compound 39, 3-{4-[2-Amino-6-(4-pyridin-3-ylmethyl-piperazin-1-yl)-pyrimidin-4-yloxy]-phenyl}-2-methyl-2-ph enoxy-propionic acid] returned a melting point of 141 to 143 °C. The same compound returned an IC50 in the data set with HepG2 of over 50 µM. Moreover, the IC50 in the data set with MCF-7 amounted to 38.8 µM. Besides, the IC50 in the data set with SPC-A1 was found to be 43.5 µM. In the data set with T24, this compound had an IC50 of over 50 µM.
With `CC(Cc1ccc(Oc2cc(N3CCN(Cc4ccncc4)CC3)nc(N)n2)cc1)(Oc1ccccc1)C(=O)O` (centres unmarked) [Compound 40, 3-{4-[2-Amino-6-(4-pyridin-4-ylmethyl-piperazin-1-yl)-pyrimidin-4-yloxy]-phenyl}-2-methyl-2-phenoxy-propionic acid], the melting point lay in the range of 137 to 138 °C. Besides, in the data set on HepG2, the IC50 is over 50 µM. Further, in the data set on MCF-7, the IC50 turned out to be 45.2 µM. It took 46.5 µM to reach half-maximal inhibition with SPC-A1 (IC50). The compound also returned an IC50 in the data set with T24 of over 50 µM.
